Reference: patent US10870647B2, “Imidazopyridine derivative, method for preparing same, and pharmaceutical composition containing same as active ingredient for preventing or treating cancer” (DAEGU-GYEONGBUK MEDICAL INNOVATION FOUNDATION, priority 2016, dated 2020)
Where two headings read alike, the source gives them in different places.

How the values were obtained:
Test in all cases: Kinase selectivity, scanMAX Kinase assay panel (DiscoverX), % control at 1 uM
Format in all cases: binding
[1] = target: T1, scanMAX Kinase assay panel (Homo sapiens, UniProt Q13153); details: PAK1; 1 uM; read-out: Percent Control (%)
T1 construct: purchased DiscoverX
Outline: (§1)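 1 uM cpd (DMSO) per kinase; % ctrl = [cpd − pos ctrl]/[neg ctrl − pos ctrl] × 100; hit if <35.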

[2] = target: T2, scanMAX Kinase assay panel (Homo sapiens, UniProt Q8TDX7); details: NEK7; 1 uM; read-out: Percent Control (%)
T2 construct: purchased DiscoverX
T2 sequence (Q8TDX7 whole entry): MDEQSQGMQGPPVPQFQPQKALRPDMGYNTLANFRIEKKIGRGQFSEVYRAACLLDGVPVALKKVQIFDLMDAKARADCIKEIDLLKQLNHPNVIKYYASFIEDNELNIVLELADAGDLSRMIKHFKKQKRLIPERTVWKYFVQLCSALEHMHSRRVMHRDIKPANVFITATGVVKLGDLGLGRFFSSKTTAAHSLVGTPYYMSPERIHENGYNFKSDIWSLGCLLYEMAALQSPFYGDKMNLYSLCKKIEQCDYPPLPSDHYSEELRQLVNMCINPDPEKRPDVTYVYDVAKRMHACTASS
Outline: as §1

[3] = target: T3, scanMAX Kinase assay panel (Homo sapiens, UniProt P22607); details: FGFR3; 1 uM; read-out: Percent Control (%)
T3 construct: purchased DiscoverX
T3 sequence (P22607 23-806): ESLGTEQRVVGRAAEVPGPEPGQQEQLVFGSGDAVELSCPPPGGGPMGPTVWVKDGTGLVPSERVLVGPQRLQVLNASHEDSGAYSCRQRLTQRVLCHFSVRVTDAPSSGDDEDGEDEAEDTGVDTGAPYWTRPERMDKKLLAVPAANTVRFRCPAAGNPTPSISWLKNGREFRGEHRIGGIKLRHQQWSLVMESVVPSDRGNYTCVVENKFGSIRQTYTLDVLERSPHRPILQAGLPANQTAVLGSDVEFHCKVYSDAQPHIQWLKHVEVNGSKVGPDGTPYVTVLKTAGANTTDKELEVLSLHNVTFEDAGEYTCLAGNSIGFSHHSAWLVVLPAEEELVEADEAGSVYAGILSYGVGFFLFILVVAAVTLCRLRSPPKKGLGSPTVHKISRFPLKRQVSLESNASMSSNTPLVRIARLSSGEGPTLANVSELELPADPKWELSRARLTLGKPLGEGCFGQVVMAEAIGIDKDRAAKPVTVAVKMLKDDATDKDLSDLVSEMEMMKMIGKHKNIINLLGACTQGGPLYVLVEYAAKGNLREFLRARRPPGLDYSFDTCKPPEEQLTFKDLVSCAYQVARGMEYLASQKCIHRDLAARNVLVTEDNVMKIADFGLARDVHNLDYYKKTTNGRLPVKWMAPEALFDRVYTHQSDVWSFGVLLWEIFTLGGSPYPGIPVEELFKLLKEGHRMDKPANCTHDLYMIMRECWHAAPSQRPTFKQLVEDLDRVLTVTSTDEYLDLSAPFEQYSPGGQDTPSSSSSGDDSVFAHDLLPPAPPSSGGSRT
Outline: as §1

[4] = target: T4, scanMAX Kinase assay panel (Homo sapiens, UniProt P10721, A829P); details: KIT (A829P); 1 uM; read-out: Percent Control (%)
T4 construct: purchased DiscoverX
T4 sequence (P10721 26-976 A829P): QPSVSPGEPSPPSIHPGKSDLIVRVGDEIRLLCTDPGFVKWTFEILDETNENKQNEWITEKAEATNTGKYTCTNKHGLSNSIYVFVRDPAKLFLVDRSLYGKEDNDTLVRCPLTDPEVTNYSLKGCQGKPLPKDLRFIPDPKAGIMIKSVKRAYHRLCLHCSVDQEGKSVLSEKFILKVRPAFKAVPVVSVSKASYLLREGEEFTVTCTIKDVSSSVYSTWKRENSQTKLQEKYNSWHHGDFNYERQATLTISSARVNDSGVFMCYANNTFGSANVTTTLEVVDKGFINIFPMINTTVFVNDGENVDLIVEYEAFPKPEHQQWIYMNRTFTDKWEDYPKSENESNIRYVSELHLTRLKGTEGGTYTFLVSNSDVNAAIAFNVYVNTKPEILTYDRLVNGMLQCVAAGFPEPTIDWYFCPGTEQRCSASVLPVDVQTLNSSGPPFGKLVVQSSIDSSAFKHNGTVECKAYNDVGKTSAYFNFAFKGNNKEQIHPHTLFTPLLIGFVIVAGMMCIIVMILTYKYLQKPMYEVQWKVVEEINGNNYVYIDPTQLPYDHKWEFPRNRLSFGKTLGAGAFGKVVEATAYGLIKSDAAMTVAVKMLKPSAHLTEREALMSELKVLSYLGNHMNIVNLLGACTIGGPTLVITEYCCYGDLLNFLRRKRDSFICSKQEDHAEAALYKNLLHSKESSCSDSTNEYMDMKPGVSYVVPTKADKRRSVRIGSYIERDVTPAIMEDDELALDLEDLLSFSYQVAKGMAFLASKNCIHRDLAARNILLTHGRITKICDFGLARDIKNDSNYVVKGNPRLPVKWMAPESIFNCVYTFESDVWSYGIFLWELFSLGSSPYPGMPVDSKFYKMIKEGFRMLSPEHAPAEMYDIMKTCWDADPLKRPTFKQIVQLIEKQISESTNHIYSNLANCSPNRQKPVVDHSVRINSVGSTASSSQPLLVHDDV
Outline: as §1

[5] = target: T5, scanMAX Kinase assay panel (Homo sapiens, UniProt Q13705); details: ACVR2B; 1 uM; read-out: Percent Control (%)
T5 construct: purchased DiscoverX
T5 sequence (Q13705 19-512): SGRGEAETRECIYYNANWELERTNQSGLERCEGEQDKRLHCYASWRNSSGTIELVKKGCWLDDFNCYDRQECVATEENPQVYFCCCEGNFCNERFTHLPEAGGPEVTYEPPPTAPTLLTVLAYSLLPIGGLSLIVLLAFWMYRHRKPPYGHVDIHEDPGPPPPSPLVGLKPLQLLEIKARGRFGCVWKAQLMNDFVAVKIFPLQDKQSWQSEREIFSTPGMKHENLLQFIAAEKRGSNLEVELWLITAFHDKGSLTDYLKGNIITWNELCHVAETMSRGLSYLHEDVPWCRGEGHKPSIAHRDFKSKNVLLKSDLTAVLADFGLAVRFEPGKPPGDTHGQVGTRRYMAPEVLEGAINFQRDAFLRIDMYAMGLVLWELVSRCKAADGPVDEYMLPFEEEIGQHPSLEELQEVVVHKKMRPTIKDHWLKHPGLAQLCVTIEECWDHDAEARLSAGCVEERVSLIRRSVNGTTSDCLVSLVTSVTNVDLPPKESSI
Outline: as §1

[6] = target: T6, scanMAX Kinase assay panel (Homo sapiens, UniProt Q9UK32); details: 1 uM, read-out: Percent Control (%)
T6 construct: purchased DiscoverX
Outline: as §1

[7] = target: T7, scanMAX Kinase assay panel (Homo sapiens, UniProt Q9HBY8); details: SGK2; 1 uM; read-out: Percent Control (%)
T7 construct: purchased DiscoverX
T7 sequence (Q9HBY8 1-367): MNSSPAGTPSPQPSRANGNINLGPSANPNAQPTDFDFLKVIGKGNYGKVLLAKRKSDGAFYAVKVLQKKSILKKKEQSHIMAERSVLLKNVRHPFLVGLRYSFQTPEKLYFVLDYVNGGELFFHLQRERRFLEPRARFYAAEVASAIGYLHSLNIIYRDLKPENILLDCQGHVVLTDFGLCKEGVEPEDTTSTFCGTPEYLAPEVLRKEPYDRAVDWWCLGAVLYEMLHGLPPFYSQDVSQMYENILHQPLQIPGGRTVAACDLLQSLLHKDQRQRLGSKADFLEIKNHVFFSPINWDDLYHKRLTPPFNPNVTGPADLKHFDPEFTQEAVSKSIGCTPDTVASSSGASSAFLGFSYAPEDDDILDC
Outline: as §1

[8] = target: T8, scanMAX Kinase assay panel (Homo sapiens, UniProt Q9H0K1); details: SIK2; 1 uM; read-out: Percent Control (%)
T8 construct: purchased DiscoverX
Outline: as §1

[9] = target: T9, scanMAX Kinase assay panel (Homo sapiens, UniProt P54756); details: EPHA5; 1 uM; read-out: Percent Control (%)
T9 construct: purchased DiscoverX
Outline: as §1

[10] = target: T10, scanMAX Kinase assay panel (Homo sapiens, UniProt P78356); details: PIP5K2B; 1 uM; read-out: Percent Control (%)
T10 construct: purchased DiscoverX
T10 sequence (P78356 1-416): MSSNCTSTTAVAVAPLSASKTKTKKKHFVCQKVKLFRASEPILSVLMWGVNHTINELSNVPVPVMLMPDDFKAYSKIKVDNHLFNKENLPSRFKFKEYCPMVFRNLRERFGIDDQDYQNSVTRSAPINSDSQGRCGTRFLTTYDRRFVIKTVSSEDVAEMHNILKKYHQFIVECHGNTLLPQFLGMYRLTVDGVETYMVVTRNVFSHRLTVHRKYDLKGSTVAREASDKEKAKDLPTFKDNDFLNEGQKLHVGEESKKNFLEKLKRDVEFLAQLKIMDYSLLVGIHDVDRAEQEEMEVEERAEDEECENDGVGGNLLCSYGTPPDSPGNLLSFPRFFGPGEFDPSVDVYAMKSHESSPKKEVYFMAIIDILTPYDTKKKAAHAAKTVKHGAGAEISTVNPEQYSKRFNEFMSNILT
Outline: as §1

[11] = target: T11, scanMAX Kinase assay panel (Homo sapiens, UniProt O95819); details: MAP4K4; 1 uM; read-out: Percent Control (%)
T11 construct: purchased DiscoverX
T11 sequence (O95819 whole entry): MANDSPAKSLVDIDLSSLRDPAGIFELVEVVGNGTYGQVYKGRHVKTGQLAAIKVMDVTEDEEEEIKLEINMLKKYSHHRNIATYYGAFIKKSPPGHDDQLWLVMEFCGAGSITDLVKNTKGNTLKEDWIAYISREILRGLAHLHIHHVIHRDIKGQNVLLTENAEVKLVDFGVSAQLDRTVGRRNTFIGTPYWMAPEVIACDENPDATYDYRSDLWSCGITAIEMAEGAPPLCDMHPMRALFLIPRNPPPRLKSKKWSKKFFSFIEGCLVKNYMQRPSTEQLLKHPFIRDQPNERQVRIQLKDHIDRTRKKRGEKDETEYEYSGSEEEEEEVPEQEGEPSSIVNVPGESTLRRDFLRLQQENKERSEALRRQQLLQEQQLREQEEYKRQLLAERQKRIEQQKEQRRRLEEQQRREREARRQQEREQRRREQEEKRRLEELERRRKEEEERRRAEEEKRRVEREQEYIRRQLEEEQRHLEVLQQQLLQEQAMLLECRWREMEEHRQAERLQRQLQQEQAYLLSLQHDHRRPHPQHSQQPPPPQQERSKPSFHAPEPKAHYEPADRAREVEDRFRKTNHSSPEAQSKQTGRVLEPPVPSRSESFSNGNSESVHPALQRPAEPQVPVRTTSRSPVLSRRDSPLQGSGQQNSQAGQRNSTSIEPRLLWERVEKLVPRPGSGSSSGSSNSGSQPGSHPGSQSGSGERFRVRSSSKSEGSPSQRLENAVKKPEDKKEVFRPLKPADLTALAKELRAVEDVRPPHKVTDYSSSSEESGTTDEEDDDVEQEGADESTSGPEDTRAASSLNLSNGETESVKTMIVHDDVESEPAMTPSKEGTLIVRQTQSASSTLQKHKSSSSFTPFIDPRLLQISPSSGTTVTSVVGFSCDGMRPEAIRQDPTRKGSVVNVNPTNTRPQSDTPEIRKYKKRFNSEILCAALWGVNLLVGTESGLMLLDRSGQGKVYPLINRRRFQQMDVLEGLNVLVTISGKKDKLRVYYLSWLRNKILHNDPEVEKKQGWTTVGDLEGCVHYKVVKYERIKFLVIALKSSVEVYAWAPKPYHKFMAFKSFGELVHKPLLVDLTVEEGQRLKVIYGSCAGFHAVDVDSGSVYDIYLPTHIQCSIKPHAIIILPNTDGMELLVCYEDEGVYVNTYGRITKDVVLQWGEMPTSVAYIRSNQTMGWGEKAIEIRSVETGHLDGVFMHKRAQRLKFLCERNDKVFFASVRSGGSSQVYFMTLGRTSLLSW
Outline: as §1

[12] = target: T12, scanMAX Kinase assay panel (Homo sapiens, UniProt P42684); details: ABL2; 1 uM; read-out: Percent Control (%)
T12 construct: purchased DiscoverX
T12 sequence (P42684 whole entry): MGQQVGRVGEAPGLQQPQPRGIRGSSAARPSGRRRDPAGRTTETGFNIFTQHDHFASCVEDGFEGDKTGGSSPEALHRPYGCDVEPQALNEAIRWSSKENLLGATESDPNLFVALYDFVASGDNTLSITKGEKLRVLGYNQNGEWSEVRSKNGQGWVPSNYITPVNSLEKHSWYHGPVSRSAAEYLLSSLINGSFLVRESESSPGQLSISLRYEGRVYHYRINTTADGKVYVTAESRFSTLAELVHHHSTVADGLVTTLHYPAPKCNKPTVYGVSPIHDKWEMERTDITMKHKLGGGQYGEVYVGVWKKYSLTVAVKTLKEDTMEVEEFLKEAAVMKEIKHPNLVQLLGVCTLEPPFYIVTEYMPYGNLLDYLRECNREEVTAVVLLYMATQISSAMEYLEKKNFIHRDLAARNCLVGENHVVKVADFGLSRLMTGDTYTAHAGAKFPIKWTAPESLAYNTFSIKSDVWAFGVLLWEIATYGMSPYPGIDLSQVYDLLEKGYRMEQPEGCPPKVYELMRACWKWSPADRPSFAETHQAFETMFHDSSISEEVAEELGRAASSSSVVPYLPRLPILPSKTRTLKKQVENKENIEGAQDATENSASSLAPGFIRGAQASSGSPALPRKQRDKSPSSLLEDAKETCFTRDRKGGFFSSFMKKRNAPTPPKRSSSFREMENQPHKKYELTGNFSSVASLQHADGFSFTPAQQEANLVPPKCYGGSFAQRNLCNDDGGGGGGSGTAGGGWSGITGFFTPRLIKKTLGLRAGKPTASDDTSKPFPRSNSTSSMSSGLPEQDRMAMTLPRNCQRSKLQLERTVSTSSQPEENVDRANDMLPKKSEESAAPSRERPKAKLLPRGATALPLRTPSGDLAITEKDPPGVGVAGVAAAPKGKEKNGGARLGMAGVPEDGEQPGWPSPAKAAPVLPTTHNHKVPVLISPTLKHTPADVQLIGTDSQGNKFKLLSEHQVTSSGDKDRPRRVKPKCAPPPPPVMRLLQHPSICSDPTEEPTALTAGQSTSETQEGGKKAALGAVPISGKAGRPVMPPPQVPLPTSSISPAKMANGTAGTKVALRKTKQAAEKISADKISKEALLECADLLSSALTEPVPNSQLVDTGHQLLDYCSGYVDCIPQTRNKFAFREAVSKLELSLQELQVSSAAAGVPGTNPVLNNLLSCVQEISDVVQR
Outline: as §1

[13] = target: T13, scanMAX Kinase assay panel (Homo sapiens, UniProt P30291); details: WEE1; 1 uM; read-out: Percent Control (%)
T13 construct: purchased DiscoverX
Outline: as §1

Cc1ccc(NC(=O)C2(C(=O)Nc3ccc(F)cc3)CC2)cc1C#Cc1cnc2c(Nc3cnn(C(C)C)c3)cccn12 [Example 78]
remaining binding at 1 µM [1]: 100%
remaining binding at 1 µM [2]: 100%
remaining binding at 1 µM [3]: 100%
remaining binding at 1 µM [4]: 21%
remaining binding at 1 µM [5]: 94%
remaining binding at 1 µM ([6]; RSK4 (Kin.Dom.1-N-terminal)): 93%
remaining binding at 1 µM ([6]; RSK4 (Kin.Dom.2-C-terminal)): 98%
remaining binding at 1 µM [7]: 100%
remaining binding at 1 µM [8]: 53%
remaining binding at 1 µM [9]: 100%
remaining binding at 1 µM [10]: 79%
remaining binding at 1 µM [11]: 99%
remaining binding at 1 µM [12]: 14%
remaining binding at 1 µM [13]: 100%

Cc1cn(-c2cc(NC(=O)c3ccc(C)c(C#Cc4cnc5c(Nc6cnn(C)c6)cccn45)c3)cc(C(F)(F)F)c2)cn1 [Example 12, 4-methyl-N-(3-(4-methyl-1H-imidazol-1-yl)-5-(trifluoromethyl)phenyl)-3-((8-((1-methyl-1H-pyrazol-4-yl)amino)imidazo[1,2-a]pyridin-3-yl)ethynyl)benzamide]
remaining binding at 1 µM [1]: 87%
remaining binding at 1 µM [2]: 82%
remaining binding at 1 µM [3]: 33%
remaining binding at 1 µM [4]: 29%
remaining binding at 1 µM [5]: 96%
remaining binding at 1 µM ([6]; RSK4 (Kin.Dom.1-N-terminal)): 93%
remaining binding at 1 µM ([6]; RSK4 (Kin.Dom.2-C-terminal)): 68%
remaining binding at 1 µM [7]: 100%
remaining binding at 1 µM [8]: 58%
remaining binding at 1 µM [9]: 31%
remaining binding at 1 µM [10]: 100%
remaining binding at 1 µM [11]: 4%
remaining binding at 1 µM [12]: 1%
remaining binding at 1 µM [13]: 90%

Cc1ccc(C(=O)Nc2ccc(CN3CCN(C)CC3)c(C(F)(F)F)c2)cc1C#Cc1cnc2c(Nc3cnn(C)c3)cccn12 [Example 1, 4-methyl-3-((8-((1-methyl-1H-pyrazol-4-yl)amino)imidazo[1,2-a]pyridin-3-yl)ethynyl)-N-(4-((4-methylpiperazin-1-yl)methyl)-3-(trifluoromethyl)phenyl)benzamide]
remaining binding at 1 µM [1]: 89%
remaining binding at 1 µM [2]: 71%
remaining binding at 1 µM [3]: 3%
remaining binding at 1 µM [4]: 4%
remaining binding at 1 µM [5]: 93%
remaining binding at 1 µM ([6]; RSK4 (Kin.Dom.1-N-terminal)): 81%
remaining binding at 1 µM ([6]; RSK4 (Kin.Dom.2-C-terminal)): 59%
remaining binding at 1 µM [7]: 84%
remaining binding at 1 µM [8]: 44%
remaining binding at 1 µM [9]: 1%
remaining binding at 1 µM [10]: 82%
remaining binding at 1 µM [11]: 1%
remaining binding at 1 µM [12]: 0%
remaining binding at 1 µM [13]: 92%
